Measured values: PMC11096414 (Nature Communications, 2024)

Legend:
Type in all cases: cell-based
MAVS [1] = biological target: T1, MAVS (Homo sapiens, UniProt Q7Z434); experiment: competition with 4-OI-alk in affinity pull-down, immunoblot; settings: covalent; 125 μM 4-OI for 30 min, then 125 μM 4-OI-alk for 4 h in intact 786-O cells
T1 construct: endogenous full-length protein in 786-O cells, detected by anti-MAVS immunoblot

IKKβ [2] = biological target: T2, IKKβ (Homo sapiens, UniProt O14920); experiment: as above; settings: covalent; 125 μM 4-OI for 30 min, then 125 μM 4-OI-alk for 4 h in intact 786-O cells
T2 construct: gene IKBKB; endogenous full-length protein in 786-O cells, detected by anti-IKKβ immunoblot
T2 sequence (O14920 1-756): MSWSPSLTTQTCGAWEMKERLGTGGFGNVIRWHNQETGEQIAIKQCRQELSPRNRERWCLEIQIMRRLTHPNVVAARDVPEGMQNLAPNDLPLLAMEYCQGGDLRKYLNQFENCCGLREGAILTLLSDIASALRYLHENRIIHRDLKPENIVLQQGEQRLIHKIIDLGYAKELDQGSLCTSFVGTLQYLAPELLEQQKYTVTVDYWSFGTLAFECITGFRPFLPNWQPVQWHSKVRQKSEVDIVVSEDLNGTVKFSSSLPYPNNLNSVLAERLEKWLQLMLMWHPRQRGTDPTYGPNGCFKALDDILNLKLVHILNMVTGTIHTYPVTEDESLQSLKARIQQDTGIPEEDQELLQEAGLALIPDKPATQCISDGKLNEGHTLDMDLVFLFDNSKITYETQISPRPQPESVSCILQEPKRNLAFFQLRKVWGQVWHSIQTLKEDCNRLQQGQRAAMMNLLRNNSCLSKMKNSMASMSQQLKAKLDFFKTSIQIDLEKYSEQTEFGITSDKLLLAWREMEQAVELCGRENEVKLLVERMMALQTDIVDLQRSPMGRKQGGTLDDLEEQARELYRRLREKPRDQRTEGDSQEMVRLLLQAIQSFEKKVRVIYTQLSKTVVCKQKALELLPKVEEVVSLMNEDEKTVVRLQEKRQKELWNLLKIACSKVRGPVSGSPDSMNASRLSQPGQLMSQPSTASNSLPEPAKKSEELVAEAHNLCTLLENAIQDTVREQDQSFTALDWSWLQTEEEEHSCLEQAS

MAVS [3] = biological target: T1, MAVS; experiment: alkyne probe labelling in cells, CuAAC to biotin azide, streptavidin pull-down, immunoblot; settings: covalent; 125 μM, 4 or 24 h in intact 786-O cells
Flag-MAVS = biological target: T3, Flag-MAVS (Homo sapiens, UniProt Q7Z434); experiment: alkyne probe labelling in transfected cells, CuAAC to biotin azide, streptavidin pull-down, anti-Flag immunoblot; settings: covalent; 125 μM, 4 h in intact HEK293T cells
T3 construct: Flag-tagged MAVS expressed from plasmid in HEK293T cells

IKKβ [4] = biological target: T2, IKKβ; experiment: alkyne probe labelling in cells, CuAAC to biotin azide, streptavidin pull-down, immunoblot; settings: covalent; 125 μM in intact 786-O cells
JAK1 = biological target: T4, JAK1 (Homo sapiens, UniProt P23458); experiment: as above; settings: covalent; 125 μM in intact 786-O cells
T4 construct: endogenous full-length protein in 786-O cells, detected by anti-Jak1 immunoblot
T4 sequence (P23458 whole entry): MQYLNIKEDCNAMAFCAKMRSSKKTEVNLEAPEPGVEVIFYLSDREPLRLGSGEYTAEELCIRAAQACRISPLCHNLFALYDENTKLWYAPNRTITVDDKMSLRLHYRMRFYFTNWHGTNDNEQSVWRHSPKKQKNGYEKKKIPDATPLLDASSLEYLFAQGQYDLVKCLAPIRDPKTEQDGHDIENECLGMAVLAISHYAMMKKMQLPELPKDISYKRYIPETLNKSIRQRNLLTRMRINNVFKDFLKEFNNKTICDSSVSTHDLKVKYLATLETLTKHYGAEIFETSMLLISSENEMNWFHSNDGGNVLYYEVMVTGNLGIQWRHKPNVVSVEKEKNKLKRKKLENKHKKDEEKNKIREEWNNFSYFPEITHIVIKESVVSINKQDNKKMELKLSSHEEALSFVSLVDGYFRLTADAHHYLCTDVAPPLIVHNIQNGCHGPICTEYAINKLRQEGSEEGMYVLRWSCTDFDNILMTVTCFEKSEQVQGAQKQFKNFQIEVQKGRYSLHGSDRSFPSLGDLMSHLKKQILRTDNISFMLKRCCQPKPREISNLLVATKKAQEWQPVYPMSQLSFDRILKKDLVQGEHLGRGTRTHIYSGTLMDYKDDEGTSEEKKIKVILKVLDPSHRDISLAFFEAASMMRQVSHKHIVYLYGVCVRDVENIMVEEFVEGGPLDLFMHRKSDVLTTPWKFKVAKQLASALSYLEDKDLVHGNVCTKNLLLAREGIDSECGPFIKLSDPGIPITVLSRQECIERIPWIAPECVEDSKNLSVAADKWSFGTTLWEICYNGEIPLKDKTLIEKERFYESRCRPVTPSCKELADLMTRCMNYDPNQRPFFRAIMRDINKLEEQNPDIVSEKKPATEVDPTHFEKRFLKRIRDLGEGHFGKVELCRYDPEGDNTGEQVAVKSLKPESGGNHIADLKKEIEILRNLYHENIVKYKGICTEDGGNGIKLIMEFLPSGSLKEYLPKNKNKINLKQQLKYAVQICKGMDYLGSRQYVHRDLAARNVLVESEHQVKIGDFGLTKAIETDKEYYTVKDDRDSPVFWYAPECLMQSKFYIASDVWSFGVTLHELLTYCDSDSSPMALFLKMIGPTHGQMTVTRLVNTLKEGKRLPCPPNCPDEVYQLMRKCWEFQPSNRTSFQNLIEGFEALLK

T1 sequence (Q7Z434 2-540): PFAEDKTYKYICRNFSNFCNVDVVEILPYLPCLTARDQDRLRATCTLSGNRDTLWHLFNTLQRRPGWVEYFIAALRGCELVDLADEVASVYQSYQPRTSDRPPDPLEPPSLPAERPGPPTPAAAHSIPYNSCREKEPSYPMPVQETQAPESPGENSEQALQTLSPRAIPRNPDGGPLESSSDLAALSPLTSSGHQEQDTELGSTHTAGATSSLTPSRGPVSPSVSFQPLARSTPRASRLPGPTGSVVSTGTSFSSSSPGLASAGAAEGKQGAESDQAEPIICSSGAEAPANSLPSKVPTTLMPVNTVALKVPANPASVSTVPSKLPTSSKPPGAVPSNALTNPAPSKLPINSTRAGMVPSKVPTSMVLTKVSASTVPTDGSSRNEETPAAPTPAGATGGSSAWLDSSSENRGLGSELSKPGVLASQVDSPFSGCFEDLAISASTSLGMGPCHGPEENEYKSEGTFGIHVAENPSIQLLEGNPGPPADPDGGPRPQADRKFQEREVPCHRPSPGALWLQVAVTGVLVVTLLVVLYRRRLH
T3 sequence (Q7Z434 2-540): as above

SMILES | competition with 4-OI-alk in affinity pull-down, immunoblot (MAVS [1]) | competition with 4-OI-alk in affinity pull-down, immunoblot (IKKβ [2]) | alkyne probe labelling in cells, CuAAC to biotin azide, streptavidin pull-down, (MAVS [3]) | alkyne probe labelling in transfected cells, CuAAC to biotin azide, streptavidin (Flag-MAVS) | alkyne probe labelling in cells, CuAAC to biotin azide, streptavidin pull-down, (IKKβ [4]) | alkyne probe labelling in cells, CuAAC to biotin azide, streptavidin pull-down, (JAK1)
C=C(CC(=O)OCCCCCCCC)C(=O)O [4-OI, 4-octyl itaconate] | non-alkyne-tagged 4-OI to compete with 4-OI-alk led to a reduced interaction between MAVS and 4-OI-alk | non-tagged 4-OI competed with 4-OI-alk and reduced the interaction between IKKβ and 4-OI-alk |  |  |  | 
C#CCCCCCCOC(=O)CC(=C)C(=O)O [4-OI-alk, 2-methylene-4-(oct-7-yn-1-yloxy)−4-oxobutanoic acid] |  |  | We observed an enrichment in 4-OI-alk labeling of MAVS, demonstrating the protein-drug interaction | partial reduction of 4-OI-alk labeling of MAVS C283A compared to MAVS wt | We further validated the interaction between IKKβ and 4-OI-alk in cancer cells by pull-down | We confirmed the binding of 4-OI-alk to JAK1 in our cellular model
